Measurements reported in paper PMC3159909, “Alliinase from Ensifer adhaerens and Its Use for Generation of Fungicidal Activity” (AMB Express, 2011).
Read-outs that look alike come from different tables or passages of the source.

System: T1, P-19486 alliinase
T1 construct: homodimer 96 kDa, subunit 48 kDa; PLP-dependent
Experiment: colorimetric pyruvic acid production
Type: biochemical, Ensifer adhaerens
Details: 20 uM PLP, 50 mM sodium phosphate pH 7.0, 30°C, read-out: Kinetic constants / Km
Description: colorimetric pyruvic acid production on P-19486 alliinase

SMILES	Km (diastereomer mixture) [mM]	Km [mM]
C=CC[S+]([O-])C[C@H](N)C(=O)O (mixture of isomers) [(±)-Alliin]	2.3	–
C=CC[S@+]([O-])C[C@H](N)C(=O)O [(+)-Alliin]	–	5.7
C=CCSC[C@H](N)C(=O)O [S-Allyl-L-cysteine]	–	10.6
